Several values for one entry are separate records, joined by “and”; a condition that tells them apart may be missing. Identical values can stand only once.

Data set [1] is described as follows: Urinary recovery of PTA and PTB after intravenous administration of PTA. The data set is classed as in vivo, Jersey heifers. The note with it: twelve hours after iv administration of PTA. The procedure:
Intravenous administration of PTA. In Experiment 1 the dose of purified PTA (0.21 mg kg^-1 body weight (b.w.) / 0.527 μmoles kg^-1) was dissolved in 10 mL of sterile water in a brown glass vial 1 hour before administration and protected from light. The solution was injected through a catheter (Cavafix Certo: 45 cm, 16 G; B. Braun Melsungen AG, Melsungen, Germany) placed in the right jugular vein. Blood samples were collected through another catheter placed in the left jugular vein. Blood samples were collected in heparinized glass tubes before and at predetermined times (10, 20, 30, 45 min and 1, 2, 4, 6, 8, 12, 21 and 24 hours) after PTA administration. The blood was centrifuged for 15 min at 3000 g to separate plasma which then was stored immediately at -18°C until assayed within a week following the method of Aranha et al.. Urine was collected quantitatively in urinary bags (Ratiomed GmBH, München, Germany) through a Foley catheter (Rusch Silasil no 16; Teleflex, Milan, Italy) inserted into the bladder. […]
(§1) PTA and PTB were analysed by LC-MS after purification using solid phase extraction (SPE) columns as reported in Aranha et al.. The limit of quantification of PTA and PTB in plasma was 3.0 x 10^−3 μM and 9.30 x 10^−3 μM, respectively. Limit of quantifications in diluted urine was 13 x 10^−3 μM for PTA and 8.28 x 10^−3μM for PTB.

The nature of data set [2]: Incubation of bracken extract in rumen liquid, in vitro. In kind it is in vitro ADME, Jersey cows. To be noted: for PTB concentration in rumen liquid: initial PTA 17 μM, 37 °C. The procedure:
Samples of rumen contents were collected from two rumen fistulated Jersey cows. The cows were fed daily with 6 kg of complete feedingstuff (Danish Ragna Grønmix; Danish Agro, Karise, Denmark) and 2 kg of hay. Barley straw and water were provided ad libitum. The rumen liquid fraction was obtained by passing the digest through a 250 μm nylon filter. From each cow, 150 mL rumen liquid was pre-incubated at 37°C under CO2 atmosphere for 10 min before 5 mL of bracken extract was added in order to obtain an initial PTA concentration of 17 μM. PTA stability was assessed by removal of 2.5 mL sample for PTA determination after incubation for 0, 5, 15, 30, 60 and 120 min at 37 °C. The sample was immediately centrifuged for 3 min at 8,500 g and analysed following the method of Aranha et al.. The pH in rumen liquid was determined at the beginning and termination of the experiment.
Rumen liquid samples were cleaned on HLB cartridges and processed as plasma samples. PTA and PTB calibration curves were prepared in ruminal fluid deactivated by boiling for 5 minutes. The recovery of PTA and PTB in ruminal fluid was 74% (± 0.5%) and 80% (± 1.2%), respectively.

Data set [3] is described as follows: Presence of glucuronides and sulphates in urine (B-glucuronidase/arylsulfatase incubation). The data set is classed as in vivo, Jersey heifers. To be noted: urine after iv PTA. The procedure:
The presence of glucuronides and sulphates was assessed by incubating 1 ml of buffered urine samples in 0.1 M acetic acid buffer (pH 5) with or without addition of 100 μl of B-glucuronidase/arylsulfatase at 37°C for 3 hours on a shaking water bath. Afterwards, an aliquot of 950 μl of each samples were cleaned on the Oasis HLB cartridges and analysed as described for urine samples [22].

A short description of data set [4]: Toxicokinetics of PTA and PTB in plasma after intravenous administration of PTA. The data set is classed as in vivo, Jersey heifers. The procedure: Two heifers (no’s 4848 and 4849) were used in a series of five experiments (Table 1) in a cross-over design including intravenous administration of pure PTA, oral administration of bracken extract and oral administration of dried bracken fern. At least 2 weeks elapsed between each experiment.
Intravenous administration of PTA. In Experiment 1 the dose of purified PTA (0.21 mg kg^-1 body weight (b.w.) / 0.527 μmoles kg^-1) was dissolved in 10 mL of sterile water in a brown glass vial 1 hour before administration and protected from light. The solution was injected through a catheter (Cavafix Certo: 45 cm, 16 G; B. Braun Melsungen AG, Melsungen, Germany) placed in the right jugular vein. Blood samples were collected through another catheter placed in the left jugular vein. Blood samples were collected in heparinized glass tubes before and at predetermined times (10, 20, 30, 45 min and 1, 2, 4, 6, 8, 12, 21 and 24 hours) after PTA administration. The blood was centrifuged for 15 min at 3000 g to separate plasma which then was stored immediately at -18°C until assayed within a week following the method of Aranha et al.. Urine was collected quantitatively in urinary bags (Ratiomed GmBH, München, Germany) through a Foley catheter (Rusch Silasil no 16; Teleflex, Milan, Italy) inserted into the bladder. Samples were collected before and at predetermined times (1, 2, 4, 6, 8, 12, 20 and 24 hours) after PTA administration. Two replicates from each sample were diluted 10 times (0.5 mL: 4.5 mL) with 0.1 M acetic acid, buffered to pH 5 with ammonium acetate and frozen immediately at -18°C until assayed within a week following the method of Aranha et al.. […] In this experiment, PTA was dissolved in sterile water immediately before injection.
Concentrations of PTA in plasma of individual animals were evaluated by non-compartmental analysis. Toxicokinetic variables were calculated using standard kinetic equations. The area under the curve (AUC) and the area under the first moment curve (AUMC) were determined using combined linear and natural logarithm trapezoidal rules. The terminal elimination rate was determined using the last three data points of the curve.
as §1

As to `Cc1cc2c(c(C)c1CCO)C(=O)[C@H](C)C2` [PTB, pterosin B], in data set [1], the “dose recovered in urine as PTB” value amounted to 12%. In addition, the “PTB as share of the added PTA” value stood at 10% in data set [2] (5 min after the start of incubation) and 16% in data set [2] (final sampling (120 min)). In addition, the “PTB concentration in rumen liquid” value in data set [2] (after 120 min) was 2.7 µM; in data set [2] (starting time, rumen liquid of two cows) it was 1.35 µM and 1.62 µM. Also, in data set [3], the “conjugation with glucuronic acid or sulphate in urine” value is listed as “not conjugated with either glucuronic acid or sulphate”. Moreover, the “AUC0-∞” value is 0.319 µmol·h/L in data set [4] (PTB in plasma after iv PTA 0.141 μmoles kg^-1, heifer no 4849, head prints Experiment 2); 0.284 µmol·h/L in data set [4] (PTB in plasma after iv PTA 0.231 μmoles kg^-1, heifer no 4848, head prints Experiment 2); 0.596 µmol·h/L in data set [4] (PTB in plasma after iv PTA 0.527 μmoles kg^-1, heifer no 4848, Experiment 1); 0.654 µmol·h/L in data set [4] (PTB in plasma after iv PTA 0.527 μmoles kg^-1, heifer no 4849, Experiment 1). In addition, the Tmax in data set [4] (female, Jersey, cattle, plasma, 0.21 mg kg^-1 b.w., iv PTA, first sampling point, read-out: time of peak plasma concentration of the metabolite after administration of PTA (converted)) is 10 min. Also, the “ratio of AUC PTB to AUC PTA” value is “approx. 0.4” in data set [4] (heifer no 4848, Experiments 1 and 4); 0.76 in data set [4] (heifer no 4849, additional iv experiment with lower dose).

Source of the values: paper PMC6588243, “Fate of ptaquiloside—A bracken fern toxin—In cattle” (PLoS ONE, 2019).
